Results on 28 compounds are retold here after patent publication US5464848A, “1,2,4-oxadiazolyl-phenoxyalkylisoxazoles and their use as antiviral agents” (Sterling Winthrop Inc., priority 1993, dated 1995).

Values after ≈ are worked out from the molar mass of the structure shown.

This test relates to human rhinovirus (HRV) serotypes, panel T. The test can be described thus: MIC50/MIC80 over panel T of fifteen human rhinovirus serotypes (HeLa cell CPE). The conditions noted are these: for MIC50: minimum concentration required to inhibit 50% of the tested serotypes; for MIC80: minimum concentration required to inhibit 80% of the tested serotypes. The format is cell-based. As to the method:
They are useful in inhibiting virus replication in vitro and are primarily active against picornaviruses, including enteroviruses, echovirus and coxsackie virus, especially rhinoviruses. […] The test procedure used was as follows: The MIC values were determined by an automated tissue culture infectious dose 50% (TCID-50) assay. HeLa cells in monoloyers in 96-well cluster plates were infected with a dilution of virus which had been shown empirically to produce 80% to 100% cytopathic effect (CPE) in 3 days in the absence of drug. The compound to be tested was serially diluted through 10, 2-fold cycles and added to the infected cells. After a 3 day incubation at 33° C. and 2.5% carbon dioxide, the cells were fixed with a 5% solution of glutaraldehyde followed by staining with a 0.25% solution of crystal violet in water. The plates were then rinsed, dried, and the amount of stain remaining in the well (a measure of intact cells) was quantitated with an optical density reader. The MIC was determined to be the concentration of compound which protected 50% of the cells from virus-induced CPE relative to an untreated virus control.
In the above test procedures, representative compounds of formula I were tested against some the serotypes from either a panel of fifteen human rhinovirus (HRV) serotypes, (noted in the table as panel T) namely, HRV-2, -14, -1A, -1B, -6, -21, -22, -15, -25, -30, -50, -67, -89, -86 and -41 or against some of the serotypes from a panel of 10 human rhinovirus serotypes namely HRV-3, -4, -5, -9, -16, -18, -38, -66, -75 and -61, (noted in the table as panel B) and the MIC value, expressed in micrograms per milliliter ([…]), for each rhinovirus serotype was determined for each virus, example 1e is given as an example of the data. Then MIC50 and MIC80 values, which are the minimum concentrations of the compound required to inhibit 50% and 80%, respectively, of the tested serotypes were determined.
The following Table gives the test results for representative compounds of the invention. The panel of viruses used in the test appears before the MIC80 and MIC50 figure and the number of serotypes which the compound is tested against (N) is indicated after the MIC80 and MIC50 figure.

“5-{3-[4-(5-Trifluoromethyl-1,2,4-oxadiazol-3-yl)2-cyano-6-chlorophenoxy]-propyl}-3-methylisoxazole [Example 62f]” gave an MIC50 of 0.213 µg/mL and an MIC80 of 0.09 µg/mL.

Compound `Cc1cc(CCCOc2c(C)cc(-c3noc(C4CC4)n3)cc2C)on1` [Example 4, 5-{3-[4-(5-Cyclopropyl-1,2,4-oxadiazol-3-yl) -2,6-dimethylphenoxy]propyl}-3-methylisoxazole] had an MIC80 of 0.057 µg/mL (≈ 0.161 µM). This compound also yielded an MIC50 (Human rhinovirus sp., 72 h) of 3.15 µg/mL (≈ 8.9 µM).

`COCc1nc(-c2cc(C)c(OCCCc3cc(C)no3)c(C)c2)no1` [Example 5, 5-{3-[2,6-Dimethyl-4-(5-methoxymethyl-1,2,4-oxadiazol-3-yl)phenoxy]propyl}-3-methylisoxazole] showed an MIC80 of 0.037 µg/mL (≈ 0.104 µM). Moreover, the MIC50 (Human rhinovirus sp., 72 h) came out at 0.153 µg/mL (≈ 0.428 µM).

On to `Cc1cc(CCCOc2c(C)cc(-c3noc(CF)n3)cc2C)on1` [Example 6, 5-{3-[2,6-Dimethyl-4-(5-fluoromethyl-1,2,4-oxadiazol-3-yl)phenoxy]propyl}-3-methylisoxazole], for which the MIC80 was determined as 0.046 µg/mL (≈ 0.133 µM). The MIC50 (Human rhinovirus sp., 72 h) was found to be 0.073 µg/mL (≈ 0.211 µM).

`CCOC(=O)c1nc(-c2cc(C)c(OCCCc3cc(C)no3)c(C)c2)no1` [Example 7, 5-{3-[2,6-Dimethyl-4-(5-ethoxycarbonyl-1,2,4-oxadiazol-3-yl)phenoxy]propyl}-3-methylisoxazole] had an MIC80 of 99 µg/mL (≈ 257 µM). The MIC50 (Human rhinovirus sp., 72 h) is 99 µg/mL (≈ 257 µM).

`Cc1cc(CCCOc2c(C)cc(-c3noc(=O)[nH]3)cc2C)on1` [Example 8, 5-{3-[2,6-Dimethyl-4-(5-oxo-4,5-dihydro-1,2,4-oxadiazol-3-yl)phenoxy]propyl}-3-methylisoxazole] came in with an MIC80 of 99 µg/mL (≈ 301 µM). In addition, the MIC50 (Human rhinovirus sp., 72 h) is 99 µg/mL (≈ 301 µM).

With `CC(=O)OCc1nc(-c2cc(C)c(OCCCc3cc(C)no3)c(C)c2)no1` [Example 9, 5-{3-[2,6-Dimethyl-4-(5-methylcarbonyloxy-methyl-1,2,4-oxadiazol-3-yl)phenoxy]propyl}-3-methylisoxazole], the MIC80 is 0.141 µg/mL (≈ 0.366 µM). Besides, the MIC50 (Human rhinovirus sp., 72 h) amounted to 0.279 µg/mL (≈ 0.724 µM).

In turn, `Cc1cc(CCCOc2c(C)cc(-c3noc(CCl)n3)cc2C)on1` [Example 10, 5-{3-[4-(5-Chloromethyl-1,2,4-oxadiazol-3-yl) -2,6-dimethylphenoxy]propyl}-3-methylisoxazole] displayed an MIC80 of 0.141 µg/mL (≈ 0.39 µM). This compound also gave an MIC50 (Human rhinovirus sp., 72 h) of 0.279 µg/mL (≈ 0.771 µM).

Turning to `CC(=O)OC(C)c1nc(-c2cc(C)c(OCCCc3cc(C)no3)c(C)c2)no1` (centres unmarked) [Example 11, 5-{3-[2,6-Dimethyl-4-(5-(1-methylcarbonyloxy-ethyl)-1,2,4-oxadiazol-3-yl)phenoxy]propyl}-3-methylisoxazole], the MIC80 is 0.2485 µg/mL (≈ 0.622 µM). Also, under “Human rhinovirus sp., 72 h”, the MIC50 came to 1.98 µg/mL (≈ 4.97 µM).

`Cc1cc(CCCOc2c(C)cc(-c3noc(C(Cl)(Cl)Cl)n3)cc2C)on1` [Example 12, 5-{3-[2,6-Dimethyl-4-(5-trichloromethyl-1,2,4-oxadiazol-3-yl)-phenoxy]propyl}-3-methylisoxazole] had an MIC80 of 0.662 µg/mL (≈ 1.54 µM). Under “Human rhinovirus sp., 72 h”, the MIC50 amounted to 2.94 µg/mL (≈ 6.83 µM).

Consider `Cc1cc(CCCOc2c(C)cc(-c3noc(C(Cl)Cl)n3)cc2C)on1` [Example 13, 5-{3-[4-(5-Dichloromethyl-1,2,4-oxadiazol-3-yl)-2,6-dimethyl-phenoxy]propyl}-3-methylisoxazole], for which the MIC80 turned out to be 0.145 µg/mL (≈ 0.366 µM). Moreover, the MIC50 (Human rhinovirus sp., 72 h) was determined as 0.266 µg/mL (≈ 0.671 µM).

Turning to `Cc1cc(CCCOc2c(C)cc(-c3noc(C(F)F)n3)cc2C)on1` [Example 14, 5-{3-[4-(5-Difluoromethyl-1,2,4-oxadiazol-3-yl)-2,6-dimethyl-phenoxy]propyl}-3-methylisoxazole], the MIC80 was found to be 0.022 µg/mL (≈ 0.0605 µM). The MIC50 (Human rhinovirus sp., 72 h) is 0.054 µg/mL (≈ 0.149 µM).

Take `Cc1cc(CCCOc2c(C)cc(-c3noc(=N)[nH]3)cc2C)on1` [Example 15, 5-{3-[4-(5-Imino-4,5-dihydro-1,2,4-oxadiazol-3-yl)-2,6-dimethylphenoxy]propyl}-3-methylisoxazole]: the MIC80 stood at 99 µg/mL (≈ 301 µM). For the setting “Human rhinovirus sp., 72 h”, this compound registered an MIC50 of 99 µg/mL (≈ 301 µM).

Compound `COc1nc(-c2cc(C)c(OCCCc3cc(C)no3)c(C)c2)no1` [Example 16, 5-{3-[2,6-Dimethyl-4-(5-methoxy-1,2,4-oxadiazol-3-yl)phen-oxy]propyl}-3-methylisoxazole] came in with an MIC80 of 0.036 µg/mL (≈ 0.105 µM). Moreover, the MIC50 (Human rhinovirus sp., 72 h) was determined as 0.135 µg/mL (≈ 0.393 µM).

Compound `CCOc1nc(-c2cc(C)c(OCCCc3cc(C)no3)c(C)c2)no1` [Example 17, 5-{3-[2,6-Dimethyl-4-(5-ethoxy-1,2,4-oxadiazol-3-yl)phenoxy]propyl}-3-methylisoxazole] registered an MIC80 of 0.055 µg/mL (≈ 0.154 µM). The compound also yielded an MIC50 (Human rhinovirus sp., 72 h) of 0.116 µg/mL (≈ 0.325 µM).

Regarding `CN=c1[nH]c(-c2cc(C)c(OCCCc3cc(C)no3)c(C)c2)no1` [Example 18, 5-{3-[2,6-Dimethyl-4-(5-methylimino-4,5-dihydro-1,2,4-oxadiazol-3-yl)phenoxy]propyl}-3-methylisoxazole], the MIC80 was 0.128 µg/mL (≈ 0.374 µM). The same compound came in with an MIC50 (Human rhinovirus sp., 72 h) of 0.325 µg/mL (≈ 0.949 µM).

In turn, `Cc1cc(CCCOc2c(C)cc(-c3noc(N(C)C)n3)cc2C)on1` [Example 19, 5-{3-[2,6-Dimethyl-4-(5-dimethylamino-1,2,4-oxadiazol-3-yl)-phenoxy]propyl}-3-methylisoxazole] showed an MIC80 of 0.085 µg/mL (≈ 0.238 µM). This compound also registered an MIC50 (Human rhinovirus sp., 72 h) of 0.285 µg/mL (≈ 0.8 µM).

`COCc1cc(CCCOc2c(C)cc(-c3noc(C(F)(F)F)n3)cc2C)on1` [Example 21, 5-{3-[2,6-Dimethyl-4-(5-trifluoromethyl-1,2,4-oxadiazol-3-yl)phenoxy]propyl}-3-(methoxymethyl) -isoxazole]: the MIC80 came to 0.0575 µg/mL (≈ 0.14 µM). The compound further returned an MIC50 (Human rhinovirus sp., 72 h) of 1.56 µg/mL (≈ 3.8 µM).

`CCOCc1cc(CCCOc2c(C)cc(-c3noc(C(F)(F)F)n3)cc2C)on1` [Example 22, 5-{3-[2,6-Dimethyl-4-(5-trifluoromethyl-1,2,4-oxadiazol-3-yl)phenoxy]propyl}-3-(ethoxymethyl)-isoxazole] returned an MIC80 of 0.087 µg/mL (≈ 0.205 µM). This compound also showed an MIC50 (Human rhinovirus sp., 72 h) of 0.729 µg/mL (≈ 1.71 µM).

Take `Cc1cc(-c2noc(C(F)(F)F)n2)cc(C)c1OCCCc1cc(C2CC2)no1` [Example 23, 3-Cyclopropyl-5-{3-[2,6-dimethyl-4-(5-trifluoromethyl-1,2,4-oxadiazol-3-yl)phenoxy]propyl}-isoxazole]: the MIC80 stood at 0.204 µg/mL (≈ 0.501 µM). In addition, under “Human rhinovirus sp., 72 h”, the MIC50 is 0.625 µg/mL (≈ 1.53 µM).

For `CCc1cc(CCCOc2c(C)cc(-c3noc(C4CC4)n3)cc2C)on1` [Example 25, 5-{3-[4-(5-Cyclopropyl-1,2,4-oxadiazol-3-yl) -2,6-dimethylphenoxy]propyl}-3-ethylisoxazole], the MIC80 is 0.085 µg/mL (≈ 0.231 µM). For the same compound, the MIC50 (Human rhinovirus sp., 72 h) is 0.312 µg/mL (≈ 0.849 µM).

`COCc1cc(CCCOc2c(C)cc(-c3noc(C4CC4)n3)cc2C)on1` [Example 26] returned an MIC80 of 0.038 µg/mL (≈ 0.0991 µM). Moreover, where the note is “Human rhinovirus sp., 72 h”, the MIC50 stood at 0.183 µg/mL (≈ 0.477 µM).

Compound `Cc1cc(-c2noc(C3CC3)n2)cc(C)c1OCCCc1cc(C2CC2)no1` [Example 27] gave an MIC80 of 0.087 µg/mL (≈ 0.229 µM). Moreover, where the note is “Human rhinovirus sp., 72 h”, the MIC50 was determined as 0.142 µg/mL (≈ 0.374 µM).

As to `CCc1cc(CCCOc2c(C)cc(-c3noc(C(F)(F)F)n3)cc2C)on1` [Example 28c, 5-{3-[2,6-Dimethyl-4-(5-trifluoromethyl-1,2,4-oxadiazol-3-yl)phenoxy]propyl}-3-ethylisoxazole], the MIC80 came to 0.119 µg/mL (≈ 0.301 µM). The MIC50 (Human rhinovirus sp., 72 h) is 0.278 µg/mL (≈ 0.703 µM).

As to `COCCc1cc(CCCOc2c(C)cc(-c3noc(C(F)(F)F)n3)cc2C)on1` [Example 29d, 5-{3-[2,6-Dimethyl-4-(5-trifluoromethyl-1,2,4-oxadiazol-3-yl)phenoxy]propyl}-3-(methoxyethyl)isoxazole], the MIC80 was 0.715 µg/mL (≈ 1.68 µM). The compound also yielded an MIC50 (Human rhinovirus sp., 72 h) of 0.172 µg/mL (≈ 0.404 µM).

`Cc1cc(CCCCCOc2c(C)cc(-c3noc(C(F)(F)F)n3)cc2C)on1` [Example 30c, 5-{5-[2,6-Dimethyl-4-(5-trifluoromethyl-1,2,4-oxadiazol-3-yl)-phenoxy]pentyl}-3-methylisoxazole] gave an MIC80 of 0.225 µg/mL (≈ 0.55 µM). Moreover, the MIC50 (Human rhinovirus sp., 72 h) came to 0.694 µg/mL (≈ 1.7 µM).

On to `Cc1cc(CCCCCOc2c(Cl)cc(-c3noc(C(F)(F)F)n3)cc2Cl)on1` [Example 31c, 5-{5-[2,6-Dichloro-4-(5-trifluoromethyl-1,2,4-oxadiazol-3-yl)-phenoxy]pentyl}-3-methylisoxazole], for which the MIC80 was determined as 0.533 µg/mL (≈ 1.18 µM). For the same compound, for the setting “Human rhinovirus sp., 72 h”, the MIC50 worked out at 99 µg/mL (≈ 220 µM).

In turn, `Cc1cc(CCCOc2ccc(-c3noc(C(F)(F)F)n3)cc2)on1` [Example 32c, 3-Methyl-5-{3-[4-(5-trifluoromethyl-1,2,4-oxadiazol-3-yl) -phenoxy]propyl}isoxazole] showed an MIC80 of 2.86 µg/mL (≈ 8.1 µM). The MIC50 (Human rhinovirus sp., 72 h) stood at 99 µg/mL (≈ 280 µM).
